Test results from PMC5428509, “Irreversible inhibition of BTK kinase by a novel highly selective inhibitor CHMFL-BTK-11 suppresses inflammatory response in rheumatoid arthritis model” (Scientific Reports, 2017).

How the values were obtained:
Experiment in all cases: biochemical
Parameters in all cases: KinomeScan competition binding panel (DiscoveRx), percent of control at 1 uM
Settings in all cases: read-out: Percent Control
TAK1 = target: T1, TAK1 (Homo sapiens, UniProt O43318)
T1 construct: gene MAP3K7
Summary of the method: (§1)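 Selectivity profiled across 456 kinases/mutants by KinomeScan binding technology.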

CIT = CIT (Homo sapiens, UniProt O14578)
Summary of the method: as §1

MEK3 = target: T2, MEK3 (Homo sapiens, UniProt P46734)
T2 construct: gene MAP2K3
Summary of the method: as §1

CHEK2 = CHEK2 (Homo sapiens, UniProt O96017)
Summary of the method: as §1

DAPK2 = DAPK2 (Homo sapiens, UniProt Q9UIK4)
Summary of the method: as §1

LYN = LYN (Homo sapiens, UniProt P07948)
Summary of the method: as §1

CSNK2A2 = CSNK2A2 (Homo sapiens, UniProt P19784)
Summary of the method: as §1

MLK3 = target: T3, MLK3 (Homo sapiens, UniProt Q16584)
T3 construct: gene MAP3K11
Summary of the method: as §1

CAMK2A = CAMK2A (Homo sapiens, UniProt Q9UQM7)
Summary of the method: as §1

CAMKK1 = CAMKK1 (Homo sapiens, UniProt Q8N5S9)
Summary of the method: as §1

PKMYT1 = PKMYT1 (Homo sapiens, UniProt Q99640)
Summary of the method: as §1

ABL1-phosphorylated = target: T4, ABL1-phosphorylated (Homo sapiens, UniProt P00519)
T4 construct: phosphorylated
Summary of the method: as §1

EPHA6 = EPHA6 (Homo sapiens, UniProt Q9UF33)
Summary of the method: as §1

PFTK1 = target: T5, PFTK1 (Homo sapiens, UniProt O94921)
T5 construct: gene CDK14
Summary of the method: as §1

FLT3(R834Q) = FLT3(R834Q) (Homo sapiens, UniProt P36888, R834Q)
Summary of the method: as §1

PLK2 = PLK2 (Homo sapiens, UniProt Q9NYY3)
Summary of the method: as §1

AKT1 = AKT1 (Homo sapiens, UniProt P31749)
Summary of the method: as §1

CDKL5 = CDKL5 (Homo sapiens, UniProt O76039)
Summary of the method: as §1

KIT = KIT (Homo sapiens, UniProt P10721)
Summary of the method: as §1

CSNK2A1 = CSNK2A1 (Homo sapiens, UniProt P68400)
Summary of the method: as §1

CLK2 = CLK2 (Homo sapiens, UniProt P49760)
Summary of the method: as §1

EPHB3 = EPHB3 (Homo sapiens, UniProt P54753)
Summary of the method: as §1

ALK(C1156Y) = ALK(C1156Y) (Homo sapiens, UniProt Q9UM73, C1156Y)
Summary of the method: as §1

AURKC = AURKC (Homo sapiens, UniProt Q9UQB9)
Summary of the method: as §1

NEK11 = NEK11 (Homo sapiens, UniProt Q8NG66)
Summary of the method: as §1

CIT, sequence (O14578 whole entry): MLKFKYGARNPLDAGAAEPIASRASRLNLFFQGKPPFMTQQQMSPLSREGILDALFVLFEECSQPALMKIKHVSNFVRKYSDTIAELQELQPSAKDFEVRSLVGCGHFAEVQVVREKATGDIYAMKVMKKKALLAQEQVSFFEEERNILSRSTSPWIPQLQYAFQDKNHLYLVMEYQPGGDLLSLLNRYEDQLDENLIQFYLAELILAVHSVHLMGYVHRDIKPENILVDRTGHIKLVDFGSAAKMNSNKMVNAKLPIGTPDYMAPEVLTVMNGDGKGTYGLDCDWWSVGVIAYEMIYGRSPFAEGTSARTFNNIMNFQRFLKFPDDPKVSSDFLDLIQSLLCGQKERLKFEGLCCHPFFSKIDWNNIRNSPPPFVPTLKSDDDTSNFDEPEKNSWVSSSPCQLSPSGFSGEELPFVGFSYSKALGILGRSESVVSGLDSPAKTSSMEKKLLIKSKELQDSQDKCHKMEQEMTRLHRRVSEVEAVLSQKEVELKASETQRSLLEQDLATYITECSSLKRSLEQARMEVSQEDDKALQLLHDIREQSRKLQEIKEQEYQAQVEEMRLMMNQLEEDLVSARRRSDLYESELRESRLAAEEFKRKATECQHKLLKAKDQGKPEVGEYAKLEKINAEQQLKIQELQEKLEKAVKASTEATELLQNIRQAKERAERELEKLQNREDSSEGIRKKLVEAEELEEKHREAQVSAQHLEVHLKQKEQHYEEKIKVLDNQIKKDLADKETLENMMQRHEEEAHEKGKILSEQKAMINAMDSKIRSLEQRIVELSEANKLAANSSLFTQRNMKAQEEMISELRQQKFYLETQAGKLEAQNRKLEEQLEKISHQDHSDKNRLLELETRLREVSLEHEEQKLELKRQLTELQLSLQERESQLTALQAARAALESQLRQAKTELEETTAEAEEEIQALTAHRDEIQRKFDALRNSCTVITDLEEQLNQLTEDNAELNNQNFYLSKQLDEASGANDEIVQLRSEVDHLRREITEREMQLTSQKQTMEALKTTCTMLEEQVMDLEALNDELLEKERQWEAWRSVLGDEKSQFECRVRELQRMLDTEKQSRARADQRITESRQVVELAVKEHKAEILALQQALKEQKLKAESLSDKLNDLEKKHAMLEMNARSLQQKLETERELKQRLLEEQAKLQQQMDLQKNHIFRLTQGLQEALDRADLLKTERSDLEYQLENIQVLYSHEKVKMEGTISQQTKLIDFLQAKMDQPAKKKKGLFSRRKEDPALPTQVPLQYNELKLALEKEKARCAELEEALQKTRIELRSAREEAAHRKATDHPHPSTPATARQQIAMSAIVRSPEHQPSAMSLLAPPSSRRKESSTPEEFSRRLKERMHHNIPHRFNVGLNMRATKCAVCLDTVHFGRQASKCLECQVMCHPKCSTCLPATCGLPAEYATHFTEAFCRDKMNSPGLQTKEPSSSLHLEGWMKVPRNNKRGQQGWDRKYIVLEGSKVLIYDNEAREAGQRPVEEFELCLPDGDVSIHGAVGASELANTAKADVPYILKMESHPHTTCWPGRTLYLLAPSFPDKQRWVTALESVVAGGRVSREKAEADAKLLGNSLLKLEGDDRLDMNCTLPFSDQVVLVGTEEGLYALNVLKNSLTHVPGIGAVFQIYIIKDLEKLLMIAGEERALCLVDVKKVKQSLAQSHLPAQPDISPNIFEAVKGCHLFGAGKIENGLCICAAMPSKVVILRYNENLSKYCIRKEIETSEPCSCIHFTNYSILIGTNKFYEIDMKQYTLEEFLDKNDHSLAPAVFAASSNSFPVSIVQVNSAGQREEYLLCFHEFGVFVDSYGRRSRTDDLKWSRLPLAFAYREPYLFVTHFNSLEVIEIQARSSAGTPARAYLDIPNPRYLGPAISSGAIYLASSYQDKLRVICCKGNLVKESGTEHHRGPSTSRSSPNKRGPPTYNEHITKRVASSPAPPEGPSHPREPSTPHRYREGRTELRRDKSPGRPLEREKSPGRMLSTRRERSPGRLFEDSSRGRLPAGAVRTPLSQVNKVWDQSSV
CDKL5, sequence (O76039 whole entry): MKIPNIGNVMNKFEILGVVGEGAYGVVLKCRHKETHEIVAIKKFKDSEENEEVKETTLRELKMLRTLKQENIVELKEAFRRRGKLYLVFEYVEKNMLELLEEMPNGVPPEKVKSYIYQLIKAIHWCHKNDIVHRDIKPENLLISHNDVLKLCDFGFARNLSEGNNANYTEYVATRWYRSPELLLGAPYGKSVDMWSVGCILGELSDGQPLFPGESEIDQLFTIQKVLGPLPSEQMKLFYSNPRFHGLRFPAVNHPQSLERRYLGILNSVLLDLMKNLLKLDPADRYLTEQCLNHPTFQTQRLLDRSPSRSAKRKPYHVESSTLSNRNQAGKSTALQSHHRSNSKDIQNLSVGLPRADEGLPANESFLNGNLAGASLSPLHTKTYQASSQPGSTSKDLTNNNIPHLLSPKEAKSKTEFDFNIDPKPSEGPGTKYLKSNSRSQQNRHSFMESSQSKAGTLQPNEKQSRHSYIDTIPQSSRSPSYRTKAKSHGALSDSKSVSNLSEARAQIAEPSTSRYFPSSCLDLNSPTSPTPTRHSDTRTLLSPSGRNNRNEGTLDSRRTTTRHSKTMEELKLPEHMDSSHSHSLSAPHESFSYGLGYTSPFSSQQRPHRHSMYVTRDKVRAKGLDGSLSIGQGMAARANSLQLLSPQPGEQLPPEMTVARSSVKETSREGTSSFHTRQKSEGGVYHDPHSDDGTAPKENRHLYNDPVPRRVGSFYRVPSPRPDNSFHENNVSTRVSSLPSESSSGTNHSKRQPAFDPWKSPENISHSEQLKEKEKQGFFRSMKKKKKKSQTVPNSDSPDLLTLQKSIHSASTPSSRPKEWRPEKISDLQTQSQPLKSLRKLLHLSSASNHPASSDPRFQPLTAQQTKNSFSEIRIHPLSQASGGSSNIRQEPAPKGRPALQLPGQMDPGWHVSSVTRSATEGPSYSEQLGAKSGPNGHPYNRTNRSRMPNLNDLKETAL
T2 sequence (P46734 whole entry): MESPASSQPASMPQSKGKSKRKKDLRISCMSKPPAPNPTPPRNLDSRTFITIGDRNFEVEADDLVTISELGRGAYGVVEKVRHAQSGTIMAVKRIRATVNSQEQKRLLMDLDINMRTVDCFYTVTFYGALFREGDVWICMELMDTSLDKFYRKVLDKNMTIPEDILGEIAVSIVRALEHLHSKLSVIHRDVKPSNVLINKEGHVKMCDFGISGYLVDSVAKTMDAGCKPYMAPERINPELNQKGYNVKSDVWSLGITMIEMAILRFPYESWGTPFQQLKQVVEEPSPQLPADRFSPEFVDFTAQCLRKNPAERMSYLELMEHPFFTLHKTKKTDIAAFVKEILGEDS
CSNK2A1, sequence (P68400 whole entry): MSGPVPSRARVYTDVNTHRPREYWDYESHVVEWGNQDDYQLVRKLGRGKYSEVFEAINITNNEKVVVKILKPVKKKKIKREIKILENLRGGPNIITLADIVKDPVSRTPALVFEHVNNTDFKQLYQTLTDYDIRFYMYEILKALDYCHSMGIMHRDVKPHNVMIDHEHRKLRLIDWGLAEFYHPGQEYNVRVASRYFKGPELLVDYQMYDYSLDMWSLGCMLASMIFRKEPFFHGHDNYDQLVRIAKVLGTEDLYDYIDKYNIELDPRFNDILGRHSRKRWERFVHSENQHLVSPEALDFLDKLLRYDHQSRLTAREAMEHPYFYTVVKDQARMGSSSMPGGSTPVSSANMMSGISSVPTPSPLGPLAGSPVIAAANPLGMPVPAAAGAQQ
CAMKK1, sequence (Q8N5S9 whole entry): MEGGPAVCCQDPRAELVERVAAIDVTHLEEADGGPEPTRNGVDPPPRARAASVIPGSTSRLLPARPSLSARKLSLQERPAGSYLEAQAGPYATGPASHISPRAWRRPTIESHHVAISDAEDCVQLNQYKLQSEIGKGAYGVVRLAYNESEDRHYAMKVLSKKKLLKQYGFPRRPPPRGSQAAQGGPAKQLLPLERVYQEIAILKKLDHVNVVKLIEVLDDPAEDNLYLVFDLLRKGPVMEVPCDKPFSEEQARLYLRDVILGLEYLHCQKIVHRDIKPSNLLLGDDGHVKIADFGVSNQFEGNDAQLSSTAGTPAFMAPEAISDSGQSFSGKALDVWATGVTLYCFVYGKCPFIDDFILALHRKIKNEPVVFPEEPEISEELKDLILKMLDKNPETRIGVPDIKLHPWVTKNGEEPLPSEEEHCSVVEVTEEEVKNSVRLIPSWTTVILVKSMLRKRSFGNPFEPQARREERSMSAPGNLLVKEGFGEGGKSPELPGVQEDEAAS
NEK11, sequence (Q8NG66 whole entry): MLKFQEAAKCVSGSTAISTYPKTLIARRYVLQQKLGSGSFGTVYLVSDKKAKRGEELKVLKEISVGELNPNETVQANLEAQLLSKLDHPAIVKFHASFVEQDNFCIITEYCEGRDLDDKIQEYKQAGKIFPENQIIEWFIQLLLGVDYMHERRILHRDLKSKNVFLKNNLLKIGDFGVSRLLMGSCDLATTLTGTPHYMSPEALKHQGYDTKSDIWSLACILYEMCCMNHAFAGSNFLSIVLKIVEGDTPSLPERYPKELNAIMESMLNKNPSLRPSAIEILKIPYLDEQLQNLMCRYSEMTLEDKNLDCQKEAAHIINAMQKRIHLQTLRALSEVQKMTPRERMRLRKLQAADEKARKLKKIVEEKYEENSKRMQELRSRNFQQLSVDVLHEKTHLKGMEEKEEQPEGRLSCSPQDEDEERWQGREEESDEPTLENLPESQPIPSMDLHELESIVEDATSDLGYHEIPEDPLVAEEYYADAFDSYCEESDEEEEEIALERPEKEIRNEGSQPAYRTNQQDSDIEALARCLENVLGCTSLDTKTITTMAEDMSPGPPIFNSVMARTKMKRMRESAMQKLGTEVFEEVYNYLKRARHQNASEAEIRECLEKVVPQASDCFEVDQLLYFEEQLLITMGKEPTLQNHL

C=CC(=O)Nc1cc(-n2c(=O)ccc3cnc4ccc(-n5cccn5)cc4c32)ccc1C [CHMFL-BTK-11]
remaining binding at 1 µM (TAK1): 98% | remaining binding at 1 µM (CIT): 98% | remaining binding at 1 µM (MEK3): 86% | remaining binding at 1 µM (CHEK2): 100% | remaining binding at 1 µM (DAPK2): 100% | remaining binding at 1 µM (LYN): 94% | remaining binding at 1 µM (CSNK2A2): 52% | remaining binding at 1 µM (MLK3): 100% | remaining binding at 1 µM (CAMK2A): 100% | remaining binding at 1 µM (CAMKK1): 78% | remaining binding at 1 µM (PKMYT1): 94% | remaining binding at 1 µM (ABL1-phosphorylated): 78% | remaining binding at 1 µM (EPHA6): 100% | remaining binding at 1 µM (PFTK1): 100% | remaining binding at 1 µM (FLT3(R834Q)): 99% | remaining binding at 1 µM (PLK2): 91% | remaining binding at 1 µM (AKT1): 96% | remaining binding at 1 µM (CDKL5): 100% | remaining binding at 1 µM (KIT): 100% | remaining binding at 1 µM (CSNK2A1): 92% | remaining binding at 1 µM (CLK2): 100% | remaining binding at 1 µM (EPHB3): 97% | remaining binding at 1 µM (ALK(C1156Y)): 94% | remaining binding at 1 µM (AURKC): 98% | remaining binding at 1 µM (NEK11): 96%
